# From patent US6773733B2, “Structured particulate systems” (Loders Croklaan USA LLC, priority 2001, dated 2004)
# Tests used:
# Assay type in all cases: physicochemical
# [1] = Comparative homogeneity test in vegetable oil; conditions: added to 1 kg of vegetable oil, mixed for 5 minutes, continuous visual inspection
# Method: Comparative homogeneity test of structured particulate Folic Acid with non-structured active particulate component: 1. 10 milligrams of non-structured active particulate component Folic Acid is added to 1 kg of vegetable oil and 40 milligrams of structured particulate Folic Acid (25%) to another 1 kg of vegetable oil. 2. Each sample is mixed for 5 minutes with continuous visual inspection for homogeneity.
# [2] = Mean weight diameter by screen analysis; conditions: weight fraction at screen multiplied by screen opening, summed for all screen sizes
# Method: Folic acid is used as the active component It has a mean weight diameter of 246 microns and a loose bulk density of 0.2 g/cc. The mean weight diameters is calculated as follows: weight fraction at screen multiplied by screen opening (microns), summed for all screen sizes.
# Loose bulk density = experiment: Loose bulk density
# From the text: Loose bulk density being measured by measuring the volume of a known mass powder sample, that has passed through a screen into a gradulated cylinder. The procedure is described in USP<616<Bulk Density and Tapped Density.
compound,measurement,setting,value
Nc1nc2ncc(CNc3ccc(C(=O)N[C@@H](CCC(=O)O)C(=O)O)cc3)nc2c(=O)[nH]1 [Folic acid],homogeneity / dispersion by visual inspection,[1],clumps together and sticks to the container walls
same,mean weight diameter,[2],246 microns
same,loose bulk density,Loose bulk density,0.2 g/cc
